Laboratory results published in patent US9963496B2, “Stable glucagon analogues and use for treatment of hypoglycaemia” (Novo Nordisk A/S, priority 2014, dated 2018).
*1 amine or outer side, *2 acyl side, *3 side chain or, on linkers, in order; H or OH if unused. Where a SMILES comes first, the peptide text is derived from it. Side-chain parts run from the residue outwards. [ ]: non-standard residue; d: D form. The star is where a group is joined. γGlu = O=C(O)[C@H](CCC(=O)[*:2])N[*:1]; Desaminohistidyl = O=C(CCc1c[nH]cn1)*; Aib = CC(C)(N)C(=O)O

Molecular target: T1, human glucagon receptor (Homo sapiens, UniProt P47871)
T1 construct: expressed in transfected cells; host or cells: BHK cells, clone BHK hGCGR A3*25; isolated membranes
T1 sequence (P47871 26-477): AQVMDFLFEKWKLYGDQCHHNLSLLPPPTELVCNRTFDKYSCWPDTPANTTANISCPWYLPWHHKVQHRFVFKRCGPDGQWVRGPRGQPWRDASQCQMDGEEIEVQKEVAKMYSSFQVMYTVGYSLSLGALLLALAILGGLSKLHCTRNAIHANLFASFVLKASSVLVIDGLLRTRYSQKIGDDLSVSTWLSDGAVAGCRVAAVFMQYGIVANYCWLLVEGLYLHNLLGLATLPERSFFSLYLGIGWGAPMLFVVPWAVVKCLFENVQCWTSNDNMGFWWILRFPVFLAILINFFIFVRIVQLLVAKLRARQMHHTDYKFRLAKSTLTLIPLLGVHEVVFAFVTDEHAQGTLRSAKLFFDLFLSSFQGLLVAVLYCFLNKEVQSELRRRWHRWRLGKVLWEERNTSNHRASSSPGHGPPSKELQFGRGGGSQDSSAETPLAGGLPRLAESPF
Assay: Assay (I)(b): glucagon receptor activation, CRE luciferase reporter gene assay in BHK cells
Format: cell-based
Conditions: BHK cells expressing human glucagon receptor and CRE luciferase, 3 h incubation; read-out: EC50 hGlucagonR
Summary of the method: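 BHK570 cells stably expressing the human glucagon receptor and CRE-luciferase, 5×10 EE3 cells/well in DMEM with 2% ovalbumin and 0.2% Pluronic F-68. Compounds at final 1×10 EE-6 to 1×10 EE-13 M, 3 h at 37° C. Luminescence read; EC50 by four-parameter fit.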

SMILES	EC50 [pM]
CC(=O)N[C@@H](CCC(=O)N[C@@H](CCC(=O)N[C@@H](CCC(=O)N[C@@H](CCC(=O)NCCCC[C@H](NC(=O)[C@@H](NC(=O)[C@H](Cc1ccccc1)NC(=O)[C@H](CC(=O)O)NC(=O)[C@H](CCC(N)=O)NC(=O)[C@H](C)NC(=O)[C@H](CCCNC(=N)N)NC(=O)[C@H](CCCNC(=N)N)NC(=O)[C@H](CC(C)C)NC(=O)[C@H](CC(=O)O)NC(=O)[C@H](CC(C)C)NC(=O)[C@H](Cc1ccc(O)cc1)NC(=O)[C@H](CCCCN)NC(=O)[C@H](CO)NC(=O)[C@H](Cc1ccc(O)cc1)NC(=O)[C@H](CC(=O)O)NC(=O)[C@H](CO)NC(=O)[C@@H](NC(=O)[C@H](Cc1ccccc1)NC(=O)[C@@H](NC(=O)CNC(=O)[C@H](Cc1c[nH]cn1)NC(=O)C(C)(C)NC(=O)CCc1c[nH]cn1)[C@@H](C)O)[C@@H](C)O)C(C)C)C(=O)N[C@@H](Cc1c[nH]c2ccccc12)C(=O)N[C@@H](CC(C)C)C(=O)N[C@@H](CC(C)C)C(=O)N[C@@H](CO)C(=O)N[C@H](C(=O)O)[C@@H](C)O)C(=O)O)C(=O)O)C(=O)O)C(=O)O [Example 1, N^ϵ24-[(4S)-4-[[(4S)-4-[[(4S)-4-[[(4S)-4-acetamido-4-carboxybutanoyl]amino]-4-carboxybutanoyl]amino]-4-carboxybutanoyl]amino]-4-carboxybutanoyl]-[Imp1, Aib2, His3, Leu16, Lys24, Leu27, Ser28]-Glucagon] (Desaminohistidyl-[Aib]HGTFTSDYSKYLDLRRAQDFVK([γGlu-γGlu-γGlu-γGlu-Ac])WLLST-OH)	1
CC(=O)N[C@@H](CCC(=O)N[C@@H](CCC(=O)N[C@@H](CCC(=O)N[C@@H](CCC(=O)NCCCC[C@H](NC(=O)[C@H](CC(C)C)NC(=O)[C@H](CC(C)C)NC(=O)[C@H](Cc1c[nH]c2ccccc12)NC(=O)[C@H](C)NC(=O)[C@@H](NC(=O)[C@H](Cc1ccccc1)NC(=O)[C@H](CC(=O)O)NC(=O)[C@H](CCC(N)=O)NC(=O)[C@H](C)NC(=O)[C@H](CCCNC(=N)N)NC(=O)[C@H](CCCNC(=N)N)NC(=O)[C@H](CO)NC(=O)[C@H](CCC(=O)O)NC(=O)[C@H](CC(C)C)NC(=O)[C@H](Cc1ccc(O)cc1)NC(=O)[C@H](CCCCN)NC(=O)[C@H](CO)NC(=O)[C@H](Cc1ccc(O)cc1)NC(=O)[C@H](CC(=O)O)NC(=O)[C@H](CO)NC(=O)[C@@H](NC(=O)[C@H](Cc1ccccc1)NC(=O)[C@@H](NC(=O)CNC(=O)[C@H](Cc1c[nH]cn1)NC(=O)C(C)(C)NC(=O)CCc1c[nH]cn1)[C@@H](C)O)[C@@H](C)O)C(C)C)C(=O)N[C@H](C(=O)O)[C@@H](C)O)C(=O)O)C(=O)O)C(=O)O)C(=O)O [Example 4, N^ϵ28-[(4S)-4-[[(4S)-4-[[(4S)-4-[[(4S)-4-acetamido-4-carboxybutanoyl]amino]-4-carboxybutanoyl]amino]-4-carboxybutanoyl]amino]-4-carboxybutanoyl]-[Imp1, Aib2, His3, Glu15, Ala24, Leu27, Lys28]-Glucagon] (Desaminohistidyl-[Aib]HGTFTSDYSKYLESRRAQDFVAWLLK([γGlu-γGlu-γGlu-γGlu-Ac])T-OH)	5
CC(=O)N[C@@H](CCC(=O)N[C@@H](CCC(=O)N[C@@H](CCC(=O)N[C@@H](CCC(=O)NCCCC[C@H](NC(=O)[C@@H](NC(=O)[C@H](Cc1ccccc1)NC(=O)[C@H](CC(=O)O)NC(=O)[C@H](CCC(N)=O)NC(=O)[C@H](C)NC(=O)[C@H](CCCNC(=N)N)NC(=O)[C@H](CCCNC(=N)N)NC(=O)[C@@H](NC(=O)[C@H](CC(=O)O)NC(=O)[C@H](CC(C)C)NC(=O)[C@H](Cc1ccc(O)cc1)NC(=O)[C@H](CCCCN)NC(=O)[C@H](CO)NC(=O)[C@H](Cc1ccc(O)cc1)NC(=O)[C@H](CC(=O)O)NC(=O)[C@H](CO)NC(=O)[C@@H](NC(=O)[C@H](Cc1ccccc1)NC(=O)[C@@H](NC(=O)CNC(=O)[C@H](Cc1c[nH]cn1)NC(=O)C(C)(C)NC(=O)CCc1c[nH]cn1)[C@@H](C)O)[C@@H](C)O)C(C)C)C(C)C)C(=O)N[C@@H](Cc1c[nH]c2ccccc12)C(=O)N[C@@H](CC(C)C)C(=O)N[C@@H](CC(C)C)C(=O)N[C@@H](CO)C(=O)N[C@H](C(=O)O)[C@@H](C)O)C(=O)O)C(=O)O)C(=O)O)C(=O)O [Example 10, N^ϵ24-[(4S)-4-[[(4S)-4-[[(4S)-4-[[(4S)-4-acetamido-4-carboxybutanoyl]amino]-4-carboxybutanoyl]amino]-4-carboxybutanoyl]amino]-4-carboxybutanoyl]-[Imp1, Aib2, His3, Val16, Lys24, Leu27, Ser28]-Glucagon] (Desaminohistidyl-[Aib]HGTFTSDYSKYLDVRRAQDFVK([γGlu-γGlu-γGlu-γGlu-Ac])WLLST-OH)	2
CC(=O)N[C@@H](CCC(=O)N[C@@H](CCC(=O)N[C@@H](CCC(=O)N[C@@H](CCC(=O)NCCCC[C@H](NC(=O)[C@@H](NC(=O)[C@H](Cc1ccccc1)NC(=O)[C@H](CCC(=O)O)NC(=O)[C@H](CCC(N)=O)NC(=O)[C@H](C)NC(=O)[C@H](CCCNC(=N)N)NC(=O)[C@H](CCCNC(=N)N)NC(=O)[C@H](CC(C)C)NC(=O)[C@H](CC(=O)O)NC(=O)[C@H](CC(C)C)NC(=O)[C@H](Cc1ccc(O)cc1)NC(=O)[C@H](CCCCN)NC(=O)[C@H](CO)NC(=O)[C@H](Cc1ccc(O)cc1)NC(=O)[C@H](CC(=O)O)NC(=O)[C@H](CO)NC(=O)[C@@H](NC(=O)[C@H](Cc1ccccc1)NC(=O)[C@@H](NC(=O)CNC(=O)[C@H](Cc1c[nH]cn1)NC(=O)[C@H](CO)NC(=O)CCc1c[nH]cn1)[C@@H](C)O)[C@@H](C)O)C(C)C)C(=O)N[C@@H](Cc1c[nH]c2ccccc12)C(=O)N[C@@H](CC(C)C)C(=O)N[C@@H](CC(C)C)C(=O)N[C@@H](CO)C(=O)N[C@H](C(=O)O)[C@@H](C)O)C(=O)O)C(=O)O)C(=O)O)C(=O)O [Example 8, N^ϵ24-[(4S)-4-[[(4S)-4-[[(4S)-4-[[(4S)-4-acetamido-4-carboxybutanoyl]amino]-4-carboxybutanoyl]amino]-4-carboxybutanoyl]amino]-4-carboxybutanoyl]-[Imp1, His3, Leu16, Glu21, Lys24, Leu27, Ser28]-Glucagon] (Desaminohistidyl-SHGTFTSDYSKYLDLRRAQEFVK([γGlu-γGlu-γGlu-γGlu-Ac])WLLST-OH)	1
